From ChEMBL document CHEMBL1135798, “Structure-activity relationships of the antimalarial agent artemisinin. 6. The development of predictive in vitro potency models using CoMFA and HQSAR methodologies” (2002) come the findings set out here.

For the assay, the system named is Plasmodium falciparum. Kind of assay: Antimalarial activity against chloroquine-resistant, mefloquine-sensitive Plasmodium falciparum W2. It counts as functional.
In the case of `CC1(C)OO[C@]23CCCCC2CC(=O)OC3O1` (stereo partly drawn), the “Log RA” value is -2.237. As to `CO[C@H]1O[C@]2(C)OO[C@]13[C@H](CCO)CCC[C@@H]3C[C@H]2C`, the “Log RA” value was -1.8. To `CCO[C@H]1O[C@@H]2O[C@@]3(C)CC[C@H]4C(C(F)F)CC[C@@H]([C@H]1C)[C@@]24OO3` (stereo partly drawn) belongs 0.41; to `C[C@@H]1CC[C@@H]2[C@]34OO[C@](C)(CC[C@@H]13)O[C@H]4OC(Nc1nccs1)[C@@]2(C)Br` (stereo partly drawn), 0.66.

`CCO[C@H]1O[C@@H]2O[C@@]3(C)CC[C@H]4C(C=O)CC[C@@H]([C@H]1C)[C@@]24OO3` (stereo partly drawn): the “Log RA” value is listed as 0.21. The figure for `COC(=O)c1ccc(COC2O[C@@H]3O[C@@]4(C)CC[C@H]5[C@H](C)CC[C@@H]([C@H]2C)[C@@]35OO4)cc1` (stereo partly drawn) is -0.07. In the case of `CC[C@H]1C(=O)O[C@@H]2O[C@@]3(C)CC[C@H]4[C@H](C)CC[C@@H]1[C@@]24OO3`, the “Log RA” value is recorded as 1.4. To `C/C=C\C[C@@H]1C(=O)O[C@@H]2O[C@@]3(C)CC[C@H]4[C@H](C)CC[C@@H]1[C@@]24OO3` belongs -1.1; to `C[C@@H]1CC[C@@H]2[C@]34OO[C@](C)(CC[C@@H]13)O[C@H]4OC(Nc1cccc(F)c1)[C@@]2(C)Br` (stereo partly drawn), 0.79; to `C[C@@H]1CC[C@@H]2[C@]34OO[C@](C)(CC[C@@H]13)O[C@H]4OC(=O)[C@@]2(Br)CBr`, -1.64. To `C[C@]12CC[C@H]3CCCC[C@@]3(OO1)[C@H](OCc1ccccc1)O2` belongs -0.09; to `CC(C)C[C@@]12CC[C@H]3[C@H](C)CC[C@H]4CCO[C@H](O1)[C@]43OO2`, 0.4; to `CCCC[C@H]1C(=O)O[C@@H]2O[C@@]3(C)CC[C@H]4[C@H](C)CC[C@@H]1[C@@]24OO3`, 0.17. To `CCO[C@H]1O[C@@H]2O[C@@]3(C)CC(O)[C@H]4C(C)CC[C@@H]([C@H]1C)[C@@]24OO3` (stereo partly drawn) belongs -1.08; to `C[C@@H]1CC[C@H]2[C@@H](C)CO[C@@H]3O[C@@]4(C)CC[C@@H]1[C@]32O4`, -4.

`CCCC[C@@]12CC[C@H]3[C@H](C)CC[C@H]4CCO[C@H](O1)[C@]43OO2`: the “Log RA” value came out at 0.75. To `C[C@@H]1CC[C@H]2[C@@H](C)C(=O)N(CC=O)[C@@H]3O[C@@]4(C)CC[C@@H]1[C@@]23OO4` belongs 1.47; to `CCC[C@H]1C(=O)O[C@@H]2O[C@@]3(C)CC[C@H]4[C@H](C)CC[C@@H]1[C@@]24OO3`, 1.13. The figure for `CC1=CO[C@@H]2O[C@@]3(C)CC[C@H]4[C@H](C)CC[C@@H]1[C@@]24OO3` is 0.78. The figure for `C[C@@H]1CC[C@H]2[C@@H](CCc3ccccc3)C(=O)O[C@@H]3O[C@@]4(C)CC[C@@H]1[C@]32OO4` is 0.12; for `C=C/N=N/[C@H]1C(=O)O[C@@H]2O[C@]3(C)CC[C@H]4[C@H](C)CC[C@@H]1[C@@]24OO3` it is -2.7; for `C[C@@H]1CC[C@@H]2[C@]34OO[C@](C)(CC[C@@H]13)O[C@H]4OC(=O)[C@@]2(O)CO` it is -4. As for `C[C@H]1[C@@H](O[C@H](C)c2ccc(C(=O)O)cc2)O[C@@H]2O[C@@]3(C)CC[C@H]4[C@H](C)CC[C@@H]1[C@@]24OO3`, the “Log RA” value is on record as 0.12. To `C[C@@H]1CCC2[C@@H](C)C(=O)OC3OC(C)(C)OO[C@@]32C1` (stereo partly drawn) belongs -0.15; to `CCOC(=O)COC1O[C@@H]2O[C@@]3(C)CC[C@H]4[C@H](C)CC[C@@H]([C@H]1C)[C@@]24OO3` (stereo partly drawn), 0.52; to `CCOC(=O)C[C@H](O[C@H]1O[C@@H]2O[C@@]3(C)CC[C@H]4[C@H](C)CC[C@@H]([C@H]1C)[C@@]24OO3)c1ccc([N+](=O)[O-])cc1`, 1.57. To `C[C@@H]1CC[C@H]2[C@@H](C)C(CCCO)O[C@@H]3O[C@@]4(C)CC[C@@H]1[C@]32OO4` (stereo partly drawn) belongs 0.78. To `C[C@@H]1CC[C@@H]2[C@@H](C)CO[C@@H]3C[C@]4(C)CC[C@@H]1[C@]23OO4` belongs -0.24. On to `C[C@@H]1CC[C@H]2[C@@H](C)C(=O)N(Cc3ccccn3)[C@@H]3O[C@@]4(C)CC[C@@H]1[C@@]23OO4`, for which the “Log RA” value worked out at 1.46. The figure for `C[C@@H]1CC[C@H]2[C@@H](C)CO[C@@H]3O[C@@]4(C)CC[C@@H]1[C@]32OO4` is 0.75; for `C[C@@H]1CC[C@H]2[C@@H](C)C(=O)N(C)[C@@H]3O[C@@]4(C)CC[C@@H]1[C@@]23OO4` it is 0.43; for `C[C@@H]1CC[C@H]2[C@@H](C)C(=O)N[C@@H]3O[C@@]4(C)CC[C@@H]1[C@]32O4` it is -4. The figure for `C[C@@H]1CC[C@H]2[C@@H](C)C(=O)N(c3ccco3)[C@@H]3O[C@@]4(C)CC[C@@H]1[C@@]23OO4` is 0.11; for `C[C@@H]1CC[C@H]2CC(=O)O[C@@H]3O[C@@]4(CCCCc5ccccc5)CC[C@@H]1[C@@]23OO4` it is 0.45; for `CCOP(=O)(OCC)OCC[C@@H]1CCC[C@@H]2CC[C@@]3(C)OO[C@]21[C@@H](OC)O3` it is 0.37.

For `CCC[C@@]12CC[C@H]3[C@H](C)CC[C@H]4CC(=O)O[C@H](O1)[C@]43OO2`, the “Log RA” value is listed as 0.83.

As for `CC(C)CC[C@H]1C(=O)O[C@@H]2O[C@@]3(C)CC[C@H]4[C@H](C)CC[C@@H]1[C@@]24OO3`, the “Log RA” value stood at 0.07. The figure for `CO[C@@H]1O[C@@]2(C)CC[C@H]3CCC[C@@H](CCOC(=O)N(C)C)[C@]31OO2` is 0.33.

Take `CCCC[C@H]1CO[C@@H]2O[C@@]3(C)CC[C@H]4[C@H](C)CC[C@@H]1[C@@]24O3`: the “Log RA” value is listed as -4. To `C[C@@H]1CC[C@H]2CC(=O)N(CCc3ccccc3)[C@@H]3O[C@@]4(C)CC[C@@H]1[C@@]23OO4` belongs 0.16; to `CO[C@H]1O[C@@]2(C)CC[C@H]3CCC[C@@H](CCOC(=O)c4ccc(C(=O)O)cc4)[C@]31OO2`, -0.81; to `c1ccc([C@@]23CCC[C@](c4ccccc4)(CC2)OO3)cc1`, -0.91. To `C[C@@H]1CC[C@@H]2[C@]34OO[C@](C)(CC[C@@H]13)O[C@H]4OC(OCC(F)(F)F)[C@]2(C)O` (stereo partly drawn) belongs -0.7; to `CCN(CC)C(=O)c1ccc(C(=O)OCC[C@@H]2CCC[C@@H]3CC[C@@]4(C)OO[C@]32[C@@H](OC)O4)cc1`, 0.23.

As for `CCO[C@@H]1O[C@@H]2O[C@@]3(C)CC[C@H]4[C@H](C)CC[C@@H]([C@H]1C)[C@@]24OO3`, the “Log RA” value was determined as 0.32.

With `CO[C@H]1O[C@@]2(C)CC[C@H]3CCC[C@@H](CCOCc4c(C)noc4C)[C@]31OO2`, the “Log RA” value is listed as 0.58.

Regarding `CCCCCC[C@H]1C(=O)O[C@@H]2O[C@@]3(C)CC[C@H]4[C@H](C)CC[C@@H]1[C@@]24OO3`, the “Log RA” value was 0.86.

Take `C[C@@H]1CC[C@@H]2[C@]34OO[C@](C)(CC[C@@H]13)O[C@H]4OC(Nc1ncccn1)[C@@]2(C)Br` (stereo partly drawn): the “Log RA” value is recorded as -0.77. Turning to `CCC[C@H](Cc1ccccc1)OC1O[C@@H]2O[C@@]3(C)CC[C@H]4[C@H](C)CC[C@@H]([C@H]1C)[C@@]24OO3` (stereo partly drawn), the “Log RA” value was -0.09.

As to `CC(C)C[C@@]12CC[C@H]3[C@H](C)CC[C@H]4CC(=O)O[C@H](O1)[C@]43O2`, the “Log RA” value was -4.

In the case of `CO[C@H]1O[C@@]2(C)CC[C@H]3CCC[C@@H](CCOCc4cc[n+](C)cc4)[C@]31OO2`, the “Log RA” value is given as -0.9. The figure for `C[C@@H]1CC[C@H]2[C@@H](C)C(CC(F)F)O[C@@H]3O[C@@]4(C)CC[C@@H]1[C@]32OO4` (stereo partly drawn) is 0.11; for `C[C@@H]1CC[C@H]2[C@H]3CCCO[C@H]3O[C@@H]3O[C@@]4(C)CC[C@@H]1[C@]32OO4` it is 0.23. To `C[C@@H]1CC[C@@H]2[C@]34OO[C@](C)(CC[C@@H]13)O[C@H]4OC(OCC(F)(F)F)[C@@]2(C)O` (stereo partly drawn) belongs 0.29; to `C[C@@H]1CC[C@H]2[C@@H](CCCCc3ccccc3)C(=O)O[C@@H]3O[C@@]4(C)CC[C@@H]1[C@]32OO4`, 0.63; to `C[C@H]1[C@@H](O[C@@H](C)c2ccc(C(=O)O)cc2)O[C@@H]2O[C@@]3(C)CC[C@H]4[C@H](C)CC[C@@H]1[C@@]24OO3`, 0.21. Regarding `CCC[C@H]1CO[C@@H]2O[C@@]3(C)CC[C@H]4[C@H](C)CC[C@@H]1[C@@]24OO3`, the “Log RA” value turned out to be 0.74. To `CO[C@H]1O[C@]2(C)OO[C@]13[C@H](CCOCc1ccccc1)CCC[C@@H]3CC2(C)C` belongs -1.8; to `C[C@H]1[C@@H](O[C@@H](C)c2ccc(C(F)(F)F)cc2)O[C@@H]2O[C@@]3(C)CC[C@H]4[C@H](C)CC[C@@H]1[C@@]24OO3`, 0.15. `COC(=O)c1ccc(C(=O)OCC[C@@H]2CCC[C@@H]3CC[C@@]4(C)OO[C@]32[C@@H](OC)O4)cc1`: the “Log RA” value turned out to be 0.27. The figure for `CCC1(CC)OO[C@]23CCCCC2[C@@H](C)C(=O)OC3O1` (stereo partly drawn) is -0.6; for `CO[C@H]1O[C@@]2(C)CC[C@H]3CCC[C@@H](CCOC(=O)CNC(=O)OC(C)(C)C)[C@]31OO2` it is -0.04; for `CCCCC1O[C@@H]2O[C@@]3(C)CC[C@H]4[C@H](C)CC[C@@H]([C@H]1C)[C@@]24OO3` (stereo partly drawn) it is 0.06.
